Species: Rattus norvegicus
Test: Concentration required reduce reversibly the incidence of both spontaneous excitatory post-synaptic currents and inhibitory post-synaptic currents
Type: functional

CCCCCCCCO[C@H]1O[C@@H](CO)[C@@H](O)[C@H](O)[C@H]1O
Concentration: 100 µM
